# Assay results from patent EP0459561B1, “Dioxo-tetrahydroquinoline derivatives” (MERCK SHARP & DOHME LTD., priority 1990, dated 1991).
# Molecular target: AMPA receptors
# Assay: Displacement of 3H-AMPA binding, rat forebrain membranes
# Conditions: read-out: IC₅₀ (displacement of ³H-AMPA binding)
# Protocol: The ability of test compounds to displace ³H-AMPA binding to rat forebrain membranes was determined by the method of Honore et al., Neurosci. Lett., 1985, 54, 27.
structure (smiles),measurement,value
"CCOC(=O)C1C(=O)Nc2cc([N+](=O)[O-])c([N+](=O)[O-])cc2C1=O (stereo not shown) [Example 50, Ethyl 6,7-Dinitro-2,4-dioxo-3-(1,2,3,4-tetrahydroquinoline)carboxylate]",IC50,< 50 µM
